Key:
[1] = biological target: T1, VEGF receptor tyrosine kinase-2 (VEGF-R2) (Homo sapiens, UniProt P35968); test: VEGF receptor-2 kinase assay (Assay 3); assay type: biochemical; settings: 8 μM ATP, poly-(Glu4Tyr), 10 min 22° C.; read-out: VEGF-R2 (Assay 3) Concentration for half-maximal inhibition of the enzyme activity, IC50
T1 construct: GST; made in house; host or cells: baculovirus-infected insect cells (Sf9)
Protocol: Recombinant VEGF receptor tyrosine kinase-2 was purified as GST fusion protein from baculovirus-infected insect cells (Sf9). Poly-(Glu4Tyr), used as kinase substrate, was purchased from Sigma.
VEGF receptor tyrosine kinase (90 ng/measuring point) was incubated for 10 min at 22° C. in the presence of various concentrations of test substances (0 μM, and within the range 0.001-30 μM) in 30 μl assay buffer [40 mM Tris/HCl pH5.5, 10 mM MgCl2, 1 mM MnCl2, 3 μM Na ortho-vanadate, 1.0 mM dithiothreitol, 8 μM adenosine triphosphate (ATP), 0.96 μg/measuring point poly-(Glu4Tyr), 0.2 μCi/measuring point ^33P-gamma ATP, 1.4% dimethyl sulfoxide]. The reaction was stopped by adding EDTA solution (250 mM, pH 8.0, 15 μl/measuring point).
From each reaction mixture, 15 μl was applied to P30 filter strips (from Wallac), and unincorporated ^33P-ATP was removed by washing the filter strips three times, for 10 min each time, in 0.5% phosphoric acid. After drying the filter strips for 1 hour at 70° C., the filter strips were covered with scintillator strips (MeltiLex™ A, from Wallac) and stoved for 1 hour at 90° C. The amount of incorporated ^33P (substrate phosphorylation) was determined by scintillation measurement in a gamma-radiation measuring instrument (Wallac). The measured data were standardized to 0% inhibition (enzyme reaction without inhibitor) and 100% inhibition (all assay components except enzyme). The IC50 values were determined by means of a 4-parameter fit using the company's own software.

[2] = system: SK-BR-3; test: Proliferation assay SK-BR-3; assay type: cell-based; settings: Homo sapiens, 96 h; SK-BR-3, estrogen receptor-negative mamma carcinoma; 4 days, crystal violet
Protocol: (§1) Cultivated human tumor cells (originally obtained from ATCC, HeLa-MaTu and HeLa-MaTu-ADR, originally obtained from Epo GmbH, Berlin, Germany) were plated at a density of 1000 to 5000 cells/measuring point, depending on the growth rate of the cell line, in a 96-well multititer plate in 200 μl of growth medium (DMEM/HAMS F12, 2 mM L-glutamine, 10% fetal calf serum). After 24 hours the cells of one plate (zero-point plate) were stained with crystal violet (see below), whereas the medium of the other plates was replaced with fresh culture medium (200 μl), to which the test substances had been added at various concentrations (0 μM, and in the range 0.01-30 μM; the final concentration of the solvent dimethyl sulfoxide was 0.5%). The cells were incubated for 4 days in the presence of the test substances. Cellular proliferation was determined by staining the cells with crystal violet: the cells were fixed by adding 20 μl/measuring point of an 11% glutaraldehyde solution for 15 min at room temperature. After washing the fixed cells with water three times, the plates were dried at room temperature. The cells were stained by adding 100 μl/measuring point of a 0.1% crystal violet solution (pH adjusted to pH3 by adding acetic acid). After washing the stained cells with water three times, the plates were dried at room temperature. The dye was dissolved by adding 100 μl/measuring point of a 10% acetic acid solution. The extinction was determined photometrically at a wavelength of 595 nm. The percentage change in cell growth was calculated by standardization of the measured values to the extinction values of the zero-point plate (=0%) and the extinction of the untreated (0 μM) cells (=100%). The measured data were standardized to 0% inhibition (cell proliferation without inhibitor) and 100% inhibition (zero-point plate). The IC50 values were determined by means of a 4-parameter fit using the company's own software.
(§2) The substances were examined in the following cell lines which, in an exemplary manner, represent the stated indications: […]

[3] = system: MDA-MB 231; test: Proliferation assay MDA-MB 231; assay type: cell-based; settings: Homo sapiens, 96 h; MDA-MB 231, estrogen receptor-negative mamma carcinoma; 4 days, crystal violet
Protocol: as §1, with “After washing the fixed cells with water three times, the plates were dried at room temperature. The cells were stained by adding 100 μl/measuring point of a 0.1% crystal violet solution (pH adjusted to pH3 by adding acetic acid). After washing the stained cells with water three times, the plates were dried at room temperature. The dye was dissolved by adding 100 μl/measuring point of a 10% acetic acid solution.” left out, “The measured data were standardized to 0% inhibition (cell proliferation without inhibitor) and 100% inhibition (zero-point plate).” left out, “software. […]” for “software.”

[4] = system: MDA-MB 453; test: Proliferation assay MDA-MB 453; assay type: cell-based; settings: Homo sapiens, 96 h; MDA-MB 453, estrogen receptor-negative mamma carcinoma; 4 days, crystal violet
Protocol: as §1, §2

[5] = system: MCF7; test: Proliferation assay MCF7; assay type: cell-based, human; settings: MCF7, estrogen receptor-positive mamma carcinoma; 4 days, crystal violet
Protocol: as §1, §2

[6] = system: OVCAR-8; test: Proliferation assay OVCAR-8; assay type: cell-based; settings: Homo sapiens, 96 h; OVCAR-8, ovarial carcinoma; 4 days, crystal violet
Protocol: as §1, with “After washing the fixed cells with water three times, the plates were dried at room temperature. The cells were stained by adding 100 μl/measuring point of a 0.1% crystal violet solution (pH adjusted to pH3 by adding acetic acid). After washing the stained cells with water three times, the plates were dried at room temperature. The dye was dissolved by adding 100 μl/measuring point of a 10% acetic acid solution.” left out, “The measured data were standardized to 0% inhibition (cell proliferation without inhibitor) and 100% inhibition (zero-point plate).” left out, “software. […]” for “software.”

[7] = system: NCI-ADR-Res; test: Proliferation assay NCI-ADR-Res; assay type: cell-based; settings: Homo sapiens, 96 h, ovarial carcinoma, 4 days, crystal violet
Protocol: as §1, §2

[8] = system: HT29; test: Proliferation assay HT29; assay type: cell-based; settings: Homo sapiens, HT-29, 96 h; HT29, colon/rectum carcinoma; 4 days, crystal violet
Protocol: as §1, §2

[9] = system: Caco-2; test: Proliferation assay Caco-2; assay type: cell-based, human; settings: Caco-2, colon/rectum carcinoma; 4 days, crystal violet
Protocol: as §1, §2

[10] = system: SW480; test: Proliferation assay SW480; assay type: cell-based; settings: Homo sapiens, 96 h; SW480, colon/rectum carcinoma; 4 days, crystal violet
Protocol: as §1, §2

[11] = system: HCT116; test: Proliferation assay HCT116; assay type: cell-based; settings: Homo sapiens, HCT-116, 96 h; HCT116, colon/rectum carcinoma; 4 days, crystal violet
Protocol: as §1, §2

[12] = system: DU145; test: Proliferation assay DU145; assay type: cell-based, human; settings: DU145, prostate carcinoma; 4 days, crystal violet
Protocol: as §1, §2

[13] = system: PC3; test: Proliferation assay PC3; assay type: cell-based; settings: Homo sapiens, PC-3, 96 h; PC3, prostate carcinoma; 4 days, crystal violet
Protocol: as §1, §2

[14] = system: NCI-H460; test: Proliferation assay NCI-H460; assay type: cell-based, human; settings: NCI-H460, non-small-cell bronchial carcinoma; 4 days, crystal violet
Protocol: as §1, §2

[15] = system: A549; test: Proliferation assay A549; assay type: cell-based; settings: Homo sapiens, 96 h; A549, non-small-cell bronchial carcinoma; 4 days, crystal violet
Protocol: as §1, §2

[16] = system: H1975; test: Proliferation assay H1975; assay type: cell-based; settings: Homo sapiens, NCI-H1975, 96 h; H1975, non-small-cell bronchial carcinoma; 4 days, crystal violet
Protocol: as §1, §2

[17] = system: NCI-H69; test: Proliferation assay NCI-H69; assay type: cell-based; settings: Homo sapiens, 96 h; NCI-H69, small-cell bronchial carcinoma; 4 days, crystal violet
Protocol: as §1, with “After washing the fixed cells with water three times, the plates were dried at room temperature. The cells were stained by adding 100 μl/measuring point of a 0.1% crystal violet solution (pH adjusted to pH3 by adding acetic acid). After washing the stained cells with water three times, the plates were dried at room temperature. The dye was dissolved by adding 100 μl/measuring point of a 10% acetic acid solution.” left out, “The measured data were standardized to 0% inhibition (cell proliferation without inhibitor) and 100% inhibition (zero-point plate).” left out, “software. […]” for “software.”

[18] = system: Caki2; test: Proliferation assay Caki2; assay type: cell-based; settings: Homo sapiens, CAKI-2, 96 h; Caki2, kidney carcinoma; 4 days, crystal violet
Protocol: as §1, §2

[19] = system: 786-O; test: Proliferation assay 786-O; assay type: cell-based; settings: Homo sapiens, 786-0, 96 h, kidney carcinoma, 4 days, crystal violet
Protocol: as §1, §2

[20] = system: MIA PaCa-2; test: Proliferation assay MIA PaCa-2; assay type: cell-based; settings: Homo sapiens, 96 h; MIA PaCa-2, pancreas carcinoma; 4 days, crystal violet
Protocol: as §1, §2

[21] = system: HeLa; test: Proliferation assay HeLa; assay type: cell-based; settings: Homo sapiens, 96 h, cervix carcinoma, 4 days, crystal violet
Protocol: as §1, §2

[22] = system: HeLa-MaTu; test: Proliferation assay HeLa-MaTu; assay type: cell-based, human; settings: cervix carcinoma, 4 days, crystal violet
Protocol: as §1, §2

[23] = system: HeLa-MaTu-ADR; test: Proliferation assay HeLa-MaTu-ADR; assay type: cell-based, human; settings: cervix carcinoma, 4 days, crystal violet
Protocol: as §1, §2

[24] = system: A431; test: Proliferation assay A431; assay type: cell-based; settings: Homo sapiens, A-431, 96 h; A431, skin: epidermis; 4 days, crystal violet
Protocol: as §1, §2

[25] = system: A375; test: Proliferation assay A375; assay type: cell-based; settings: Homo sapiens, A-375, 96 h; A375, skin: melanoma; 4 days, crystal violet
Protocol: as §1, with “After washing the fixed cells with water three times, the plates were dried at room temperature. The cells were stained by adding 100 μl/measuring point of a 0.1% crystal violet solution (pH adjusted to pH3 by adding acetic acid). After washing the stained cells with water three times, the plates were dried at room temperature. The dye was dissolved by adding 100 μl/measuring point of a 10% acetic acid solution.” left out, “The measured data were standardized to 0% inhibition (cell proliferation without inhibitor) and 100% inhibition (zero-point plate).” left out, “software. […]” for “software.”

[26] = system: MOLM-13; test: Proliferation assay MOLM-13; assay type: cell-based; settings: Homo sapiens, 96 h; MOLM-13, leukemia; 4 days, crystal violet
Protocol: as §1, with “After washing the fixed cells with water three times, the plates were dried at room temperature. The cells were stained by adding 100 μl/measuring point of a 0.1% crystal violet solution (pH adjusted to pH3 by adding acetic acid). After washing the stained cells with water three times, the plates were dried at room temperature. The dye was dissolved by adding 100 μl/measuring point of a 10% acetic acid solution.” left out, “The measured data were standardized to 0% inhibition (cell proliferation without inhibitor) and 100% inhibition (zero-point plate).” left out, “software. […]” for “software.”

T1 sequence (P35968 20-1356, species assumed): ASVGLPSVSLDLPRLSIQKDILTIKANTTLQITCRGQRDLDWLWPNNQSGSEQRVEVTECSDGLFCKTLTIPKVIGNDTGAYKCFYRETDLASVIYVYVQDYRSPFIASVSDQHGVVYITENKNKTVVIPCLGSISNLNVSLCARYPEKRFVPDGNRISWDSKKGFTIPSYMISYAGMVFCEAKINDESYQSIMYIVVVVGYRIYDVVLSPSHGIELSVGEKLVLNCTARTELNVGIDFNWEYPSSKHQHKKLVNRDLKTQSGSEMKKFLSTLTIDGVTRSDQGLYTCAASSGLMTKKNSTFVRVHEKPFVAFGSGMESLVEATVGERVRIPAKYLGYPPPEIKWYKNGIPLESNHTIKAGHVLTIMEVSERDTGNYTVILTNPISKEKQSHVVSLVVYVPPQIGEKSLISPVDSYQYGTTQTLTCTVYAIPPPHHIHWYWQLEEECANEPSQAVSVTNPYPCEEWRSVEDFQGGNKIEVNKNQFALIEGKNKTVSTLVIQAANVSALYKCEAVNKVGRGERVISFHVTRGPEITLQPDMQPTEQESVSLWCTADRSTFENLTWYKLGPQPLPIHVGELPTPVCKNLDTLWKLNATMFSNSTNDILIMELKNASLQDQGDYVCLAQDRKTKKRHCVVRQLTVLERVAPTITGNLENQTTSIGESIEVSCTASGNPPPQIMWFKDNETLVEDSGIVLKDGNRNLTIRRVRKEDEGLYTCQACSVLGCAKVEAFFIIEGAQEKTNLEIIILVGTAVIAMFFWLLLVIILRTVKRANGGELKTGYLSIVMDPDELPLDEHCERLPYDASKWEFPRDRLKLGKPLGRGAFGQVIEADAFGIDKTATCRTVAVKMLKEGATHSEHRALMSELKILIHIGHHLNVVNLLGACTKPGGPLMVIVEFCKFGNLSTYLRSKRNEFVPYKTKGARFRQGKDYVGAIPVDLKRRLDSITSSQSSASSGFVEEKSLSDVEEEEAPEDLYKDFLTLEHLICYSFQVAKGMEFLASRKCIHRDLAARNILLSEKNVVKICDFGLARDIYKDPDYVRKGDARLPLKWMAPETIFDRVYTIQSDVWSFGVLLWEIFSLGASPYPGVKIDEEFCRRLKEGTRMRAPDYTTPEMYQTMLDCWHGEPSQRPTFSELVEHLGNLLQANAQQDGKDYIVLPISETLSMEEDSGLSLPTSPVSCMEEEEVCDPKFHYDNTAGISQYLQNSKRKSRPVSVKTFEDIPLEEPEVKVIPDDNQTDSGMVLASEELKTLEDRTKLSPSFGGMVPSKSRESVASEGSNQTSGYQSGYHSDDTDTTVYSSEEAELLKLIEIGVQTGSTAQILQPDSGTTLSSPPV

C[C@@H](O)[C@@H](C)Oc1nc(Nc2ccc(S(=N)(=O)C3CC3)cc2)ncc1C(F)(F)F (mixture of isomers) [Example 1-SI-2, (RS)—S-Cyclopropyl-S-(4-{[4-{[(1R,2R)-2-hydroxy-1-methylpropyl]oxy}-5-(trifluoromethyl)-pyrimidin-2-yl]amino}phenyl)sulfoximide]
IC50 [1]: 163 nM | IC50 [2]: 13 nM | IC50 [3]: 18 nM | IC50 [4]: 15 nM | IC50 [5]: 15 nM | IC50 [6]: 12 nM | IC50 [7]: 33 nM | IC50 [8]: 29 nM | IC50 [9]: 16 nM | IC50 [10]: 15 nM | IC50 [11]: 18 nM | IC50 [12]: 8 nM | IC50 [13]: 25 nM | IC50 [14]: 12 nM | IC50 [15]: 20 nM | IC50 [16]: 11 nM | IC50 [17]: 37 nM | IC50 [18]: 26 nM | IC50 [19]: 20 nM | IC50 [20]: 21 nM | IC50 [21]: 12 nM | IC50 [22]: 11 nM | IC50 [23]: 8 nM | IC50 [24]: 14 nM | IC50 [25]: 14 nM | IC50 [26]: 14 nM

Source: patent US20130210846A1, “USE OF NOVEL PAN-CDK INHIBITORS FOR TREATING TUMORS” (BAYER INTELLECTUAL PROPERTY GMBH, priority 2010, published 2013)
